{
  "source": "paper PMC8692891",
  "about": "(Frontiers in Immunology, 2021)",
  "key": {"[1]": {"tested_on": "STAT4 expression in MDLCs", "test": "STAT4 Western blot in MDLCs", "type": "cell-based, human", "details": "n = 4; for Total STAT4 expression: MDLCs treated 24 h, CGRP 0.1 μM, SAX 0.1 μM, CGRP1–8 10 μM, LPS 10 μg/ml, normalized to beta actin", "experimental": "For PBMCs, cells (2 × 10^6/sample) were activated with PHA (5 μg/ml) + IL2 (100 U/ml) for 48 h at 37°C, serum-starved overnight, and stimulated for 30 min at 37°C with either IL12 (10 ng/ml; R&D systems) or interferon alpha (IFNα, 5 × 10^4 U/ml; pbl Assay Science). For MDLCs, cells (2 × 10^6/sample) were re-suspended in complete RPMI medium without cytokines and rested overnight at 37°C. […] The cells were then washed and stimulated for 30 min at 37°C with combination of IL12 + IFNα at the concentrations indicated above. PBMCs/MDLCs were subsequently lysed for 30 min on ice with 100 μl lysis buffer [50 mM Tris buffer pH = 7.5, 150 mM NaCl, 2 mM EDTA, 1% Triton X100, 0.1% SDS, 1:100 dilutions of phosphatase inhibitors II/III and protease inhibitor cocktail (Sigma)], followed by three cycles of 10 s vortex and 10 min incubation on ice. Lysates were centrifuged for 10 min at 4°C/13,200 rpm, and supernatants were collected and stored at −80°C. […] Blocking was performed for 1 h at room temperature with blocking buffer (Tris-buffered saline (TBS), 0.5% Tween 20, and 0.5% dry milk). The blots were next incubated overnight at 4°C with commercial rabbit polyclonal Abs suitable for WB, directed against human STAT4 (Proteintech #13028-1AP, 0.5 μg/ml) or phosphorylated STAT4 (pSTAT4; R&D systems, #AF4319, 1 μg/ml), followed by 1:1,000 dilution of HRP-conjugated donkey-anti-rabbit IgG Ab (Southern Biotech) for 1 h at room temperature. Loading control was verified by incubation with goat polyclonal Ab to beta actin (abcam, 0.4 μg/ml), followed by 1:5,000 dilution of HRP-conjugated donkey-anti-goat IgG Ab (Promega). All Abs were diluted in blocking buffer, and pre-stained SDS-PAGE standard markers (ThermoFisher) were applied to determine molecular weights. Revelation was performed for 1–10 s with ECL-Prime chemiluminescence detection kit (Amersham). Images were acquired with the Fusion FX camera platform (Vilber Lournmat) and protein expression was quantified with ImageJ software (NIH).\n(A, B) PHA/IL2-activated PBMCs were serum-starved overnight at 37°C, and left untreated (Un) or stimulated for 30 min with either IL12 or IFNα. […] (F) MDLCs were treated as described in panels (C, D) above, and further stimulated for 30 min with combination of IL12 + IFNα."}, "[2]": {"tested_on": "langerin surface expression in MDLCs", "test": "Langerin surface expression in MDLCs (flow cytometry)", "type": "cell-based, human", "experimental": "(§1) For langerin surface expression, MDLCs were washed and stained for 20 min on ice in a final volume of 50 µl PBS with a phycoerythrin (PE)-conjugated mouse monoclonal Ab against human langerin (clone DCGM4, Beckman Coulter), or matched isotype control. For HIV-1 trans-infection, MDLCs were washed and pulsed with HIV-1 ADA (1ng p24 corresponding to multiplicity of infection of 0.2) for 4 h. MDLCs were next incubated with autologous CD4+ T-cells or with green fluorescent protein (GFP)-reporter T-cells, and HIV-1 replication was measured in the co-culture supernatants using p24 ELISA (Fujirebio) or by evaluating GFP fluorescent by flow cytometry, as we described ([13]–[15]). Fluorescent profiles were acquired using a Guava easyCite and analyzed with the InCyte software (Merck-Millipore).\n(§2) Data was analyzed using Prism software (GraphPad). Concentration-response curves were analyzed with the [log(agonist) vs. response (three parameters)] model for langrin upregulation and the [log(inhibitor) vs. normalized response − variable slope] model for HIV-1 trans-infection inhibition. The -log molar concentrations of agonists generating 50% response represented potencies (i.e., pEC50 and pIC50). Statistical significance was analyzed with the two-tailed Student’s t-test.\nThe cells were then stained for surface langerin and examined by flow cytometry."}, "HIV-1 ADA": {"tested_on": "HIV-1 ADA", "test": "MDLCs-mediated HIV-1 trans-infection to CD4+ T-cells", "type": "cell-based", "details": "for Inhibition of MDLCs-mediated HIV-1 trans-infection (in words): p24 ELISA or GFP-reporter T-cells by flow cytometry", "experimental": "as §1, §2\nThe cells were then pulsed with HIV-1 ADA for 4 h, washed, and incubated for 7 days with autologous CD4+ T-cells (A–C) or 3 days with HIV-1 GFP-reporter T-cells (D). HIV-1 trans-infection and replication in T-cells was evaluated by p24 ELISA in the co-culture supernatants or by GFP expression and flow cytometry."}, "[3]": {"details": "cited from earlier work", "source_text": "However, CGRP-mediated vasodilation is potentially protective, at least during hypertension and cardiovascular complications ([5])."}, "[4]": {"tested_on": "HIV-1 (V29)-infected PBMCs", "test": "HIV-1 infection of dermal T-cells in inner foreskin tissue explants ex-vivo", "type": "cell-based", "details": "explants pre-treated 24 h at 1 μM, inoculated 4 h, further three days incubation; flow cytometry; n = 4", "method": "For infection experiments, round (8 mm diameter) inner foreskin tissue pieces were placed in 24-well plates and incubated submerged for 24 h at 37°C with 1 ml complete RPMI medium, alone or supplemented with CGRP or SAX (1 μM, four explants per condition). The tissues were next washed, transferred to two-chamber transwell inserts (Sigma), and inoculated in a polarized manner for 4 h at 37°c with either non-infected or HIV-1 (V29)-infected PBMCs (in duplicates), as we described ([11], [12]).\nDermal cell suspensions were prepared following washing of the explants, additional incubation for three days at 37°C submerged in 1 ml fresh medium, and subsequent enzymatic digestion with collagenase/DNase as we described ([11], [12]). Pooled cells of each duplicate were surface stained as above using FITC-conjugated mouse-anti-human CD3 Ab (Pharmingen), fixed, permeabilized, and stained for 30 min at room temperature with 1:160 dilution of PE-conjugated mouse-anti-human Ab to HIV-1 p24 and core antigens (Beckman Coulter). Fluorescent profiles were recorded using a Guava easyCyte and InCyte software.\n(D, E) Other explants were further incubated for additional three days and digested with collagenase/DNase. In panel (D), shown are representative flow cytometry dot plots of dermal cell suspensions double stained for surface CD3 and intracellular p24 and examined by flow cytometry. […]"}},
  "note": "Where no end group is shown, it is not given here.",
  "data": [
    {"compound": "NCCCC[C@H](NC(=O)[C@@H](Cc1cc(Br)c(O)c(Br)c1)NC(=O)N1CCC(N2Cc3ccccc3NC2=O)CC1)C(=O)N1CCN(c2ccncc2)CC1", "note": "[BIBN4096]", "values": [
      {"measurement": "Effect of antagonist on CGRP- and SAX-mediated increase in STAT4", "setting": "[1]; BIBN4096 1 μM added 15 min before agonists (0.1 μM)", "value": "abrogated"},
      {"measurement": "Effect of antagonist on CGRP- and SAX-mediated increase in langerin expression", "setting": "[2]; BIBN4096 1 μM added 15 min before agonists (0.1 μM), n = 4", "value": "completely abrogated"},
      {"measurement": "Effect of antagonist on CGRP- and SAX-mediated inhibition of HIV-1 trans-infection", "setting": "HIV-1 ADA; BIBN4096 1 μM added 15 min before agonists (0.1 μM), n = 3", "value": "completely abrogated"}
    ]},
    {"compound": "CGRP1–8: previously described CGRP N-terminal fragment (ACDTATCV; not fully specified (bridges); ends and bridges not checked; UniProt P06881 83-90, looked up, fragment)", "values": [
      {"measurement": "Total STAT4 expression", "setting": "[1]", "value": "failed to increase"},
      {"measurement": "Increase in langerin surface expression (in words)", "setting": "[2]; MDLCs treated 24 h, flow cytometry", "value": "fails to increase"},
      {"measurement": "Inhibition of MDLCs-mediated HIV-1 trans-infection (in words)", "setting": "HIV-1 ADA; MDLCs treated 24 h", "value": "lacks anti-HIV-1 inhibitory activity"}
    ]},
    {"compound": "lipopolysaccharide [LPS]", "values": [
      {"measurement": "Total STAT4 expression", "setting": "[1]", "value": "significantly increased"}
    ]},
    {"compound": "serinyl-CGRP2-37-amide with an albumin binding fatty acid moiety in the N-terminus [SAX]", "values": [
      {"measurement": "Total STAT4 expression", "setting": "[1]", "value": "significantly increased"},
      {"measurement": "Phosphorylation of induced STAT4 (pSTAT4) upon cytokine stimulation", "setting": "[1]; after 24 h agonist treatment, 30 min IL12 + IFNα", "value": "could be readily phosphorylated"},
      {"measurement": "Half-life compared to CGRP", "setting": "[3]", "value": "longer"},
      {"measurement": "pEC50 [95% CI], increase in langerin surface expression", "setting": "[2]; MDLCs treated 24 h, flow cytometry, -log molar, n = 5", "value": "8.3 [9.6–6.5]"},
      {"measurement": "HIV-1 infection of dermal T-cells (p24+CD3+)", "setting": "[4]", "value": "undetectable levels"},
      {"measurement": "pIC50 [95% CI], inhibition of MDLCs-mediated HIV-1 trans-infection", "setting": "HIV-1 ADA; MDLCs treated 24 h, pulsed with HIV-1 ADA 4 h, 7 days with autologous CD4+ T-cells, p24 ELISA, -log molar, n = 5", "value": "8.9 [9.9–7.9]"},
      {"measurement": "Inhibition of MDLCs-mediated HIV-1 trans-infection (in words)", "setting": "HIV-1 ADA; MDLCs treated 24 h", "value": "significantly inhibited"},
      {"measurement": "Fold lower potency of SAX than CGRP", "setting": "HIV-1 ADA; blocking HIV-1 trans-infection in MDLCs", "value": "> 10", "unit": "fold"}
    ]}
  ]
}
